# Measurements reported in publication PMC4502315, “High Potency of a Novel Resveratrol Derivative, 3,3′,4,4′-Tetrahydroxy-trans-stilbene, against Ovarian Cancer Is Associated with an Oxidative Stress-Mediated Imbalance between DNA Damage Accumulation and Repair” (Oxidative Medicine and Cellular Longevity, 2015).
# Read-outs that look alike come from different tables or passages of the source.
# What was measured:
# A2780 cells = assay: SA-β-Gal activity (senescence), A2780; format: cell-based, human; conditions: 24 h, 10, 50, 100 μM tested
# Protocol: (§1) The activity of SA-β-Gal in the cell extracts was quantified by measuring the rate of conversion of 4-methylumbelliferyl-β-D-galactopyranoside to 4-methylumbelliferone, as described in [19]. In order to visualize expression of the enzyme in the cancer cell cytoplasm, cytochemical staining for SA-β-Gal was performed according to Dimri et al..
# A2780 = assay: MTT viability assay, A2780; format: cell-based; conditions: Homo sapiens, 24 h
# Protocol: (§2) Cell viability was assessed with the MTT test and with lactate dehydrogenase (LDH) release assay. As per the MTT method, normal and cancer cells were seeded into 96-well plates at high density and allowed to attach overnight. Then they were incubated in a medium containing 1.25 mg/mL of the MTT salt [3-(4,5-dimethylthiazol-2-yl)-2,5-diphenyltetrazolium bromide] for 24 h at 37°C. The generated formazan was solubilized with 20% sodium dodecyl sulphate and 50% N,N-dimethylformamide. Absorbance of the converted dye was recorded at 595 nm with a reference wavelength of 690 nm.
# (§3) In order to examine the effect of 3,3′,4,4′-THS on the viability of ovarian cancer cells and to compare its activity with RVT, subconfluent cultures of A2780, OVCAR-3, and SKOV-3 cells were subjected to a wide range of stilbene concentrations (0–500 μM) for 24 h; then MTT and LDH release assays were performed.
# caspase-3 = assay: Caspase-3 activity in ovarian cancer cell lysates; format: cell-based, human; conditions: ovarian cancer cells (A2780, OVCAR-3, SKOV-3); 24 h
# Protocol: Identification of apoptosis was based on the presence of DNA condensation in cells stained with a fluorescent dye, Hoechst 33258 (Molecular Probes, Eugene, OR). Cells were grown on Lab-Tek Chamber Slides (Nunc, Roskilde, Denmark), fixed with 4% formaldehyde for 10 min and washed twice with PBS. Then the cells were incubated with Hoechst 33258 (0.1 μg/mL) for 5 min in the dark. After washing with PBS, stained nuclei were observed and counted under a Zeiss Axio Observer D1 fluorescence microscope (Carl Zeiss, Jena, Germany). The activity of caspases 3, 8, and 9 was quantified in the cell lysates using specific colorimetric kits (Abcam, Cambridge, UK) according to the manufacturer's instructions.
# [1] = test system: ovarian cancer cells (A2780, OVCAR-3, SKOV-3); assay: Efficiency of 8-OH-dG repair after 24-h recovery, ovarian cancer cells; format: cell-based, human; conditions: all three cancer cell lines; 24-h stilbene exposure then 24-h recovery
# Protocol: Oxidative DNA damage was assessed by measuring the 8-OH-dG concentration with a competitive immunoassay (Cell Biolabs Inc.), as per manufacturer's instructions. The efficiency of 8-OH-dG repair was estimated after cell recovery for 24 h in standard growth medium. In order to examine the activity of DNA glycosylase I, reverse transcription PCR was performed. RNA extraction was carried out using the RNA Bee (Tel-Test, Friendswood, Texas, USA) and purified according to the manufacturer's protocol. One microgram of RNA was reverse transcribed into cDNA with random hexamer primers, and cDNA was subjected to PCR. The profile of the replication cycles was denaturation at 94°C for 50 s, annealing at 58°C for 50 s, and polymerization at 72°C for 1 min. In each reaction, the expression of glyceraldehyde-3-phosphate dehydrogenase (GAPDH) served as the internal control. The primers used for PCR were as follows: hOGG1 forward, 5′-[…]-3′; hOGG1 reverse, 5′-TAGCCCGCCCTGTTCTTC-3′ designed to amplify a 551-bp region; GAPDH forward, 5′-CCATGGAGAAGGCTGGGG-3′; and GAPDH reverse 5′-[…]-3′ designed to amplify a 194-bp region (total number of cycles: 28). The PCR products were separated on 3% agarose gels stained with ethidium bromide and then visualized.
# The cancer cells were treated with RVT and 3,3′,4,4′-THS to cause DNA injury; then they were washed and kept in standard growth medium to recover.
# HOSE cells [2] = assay: LDH release assay, HOSE cells; format: cell-based, human; conditions: Homo sapiens, 24 h, CalcuSyn
# SKOV-3 [3] = assay: MTT viability assay, SKOV-3; format: cell-based; conditions: Homo sapiens; for IC50: SK-OV-3, 24 h
# Protocol: as §2, §3
# SKOV-3 [4] = assay: LDH release assay, SKOV-3; format: cell-based; conditions: Homo sapiens; for IC50: SK-OV-3, 24 h, CalcuSyn
# Protocol: As per LDH release, the measurements were performed using the commercially available Pierce LDH Cytotoxicity Assay Kit (Pierce Biotechnology, Rockford, IL, USA). In this assay, cells with damaged plasma membranes release LDH into the culture environment; then the enzyme catalyses the conversion of lactate to pyruvate, which is accompanied by a reduction of NAD^+ to NADH. Afterwards, diaphorase uses NADH to reduce a tetrazolium salt to a formazan whose level is proportional to LDH activity. The absorbance emitted by the formazan was monitored at 490 nm with a reference wavelength of 680 nm.
# as §3
# catalase (CAT) [5] = assay: CAT activity, OVCAR-3; format: cell-based, human; conditions: 24 h, 10, 50, 100 μM tested
# Protocol: (§4) Total activity of superoxide dismutase (SOD) was measured in cell lysates with a commercially available kit (R&D Systems Europe, Abingdon, UK), while the activity of catalase (CAT) was estimated by using the OxiSelect Catalase Activity Assay Kit (Cell Biolabs Inc., San Diego, CA, USA). Both assays were performed according to the manufacturer's instructions.
# catalase (CAT) [6] = assay: CAT activity, SKOV-3; format: cell-based, human; conditions: 24 h, 10, 50, 100 μM tested
# Protocol: as §4
# HPMCs [7] = assay: SA-β-Gal activity (senescence), HPMCs; format: cell-based, human; conditions: 24 h, percentage of control cells
# Protocol: as §1
# HOSE cells [8] = assay: SA-β-Gal activity (senescence), HOSE cells; format: cell-based, human; conditions: 24 h, percentage of control cells
# Protocol: as §1
# HOSE cells [9] = assay: MTT viability assay, HOSE cells; format: cell-based, human; conditions: 24 h; for IC50: Homo sapiens, CalcuSyn; for concentration up to which viability was unchanged: cytotoxicity tests (MTT and LDH release)
# Protocol: as §2, §3
# HPMCs [10] = assay: Cell proliferation (CFDA SE), HPMCs; format: cell-based, human; conditions: 24 h, percentage of control cells
# Protocol: Cell proliferative potential was determined using Cell Proliferation Kit I (PromoKine, Heidelberg, Germany) according to the manufacturer's instructions. In brief, cells were probed for 15 min with 5-(and 6)-carboxyfluorescein diacetate, a succinimidyl ester (CFDA SE; 2 μM) which diffuses into cells, covalently binds to proteins, and becomes fluorescent upon its hydrolysis by intracellular esterases. The fluorescence emitted by the cells (the dye is inherited by the daughter cells through successive divisions) was recorded using a Victor2 spectrofluorometer (Perkin-Elmer, Turku, Finland) with excitation at 435 nm and emission at 535 nm.
# [11] = CalcuSyn, read-out: IC50, MTT assay
# [12] = read-out: IC50 (range over MTT and LDH release assays)
# [13] = SK-OV-3, 10 μM, 24 h, percentage of control cells
# [14] = SK-OV-3, 50 μM, 24 h, percentage of control cells
# [15] = SK-OV-3, 100 μM, 24 h, percentage of control cells
Structure (SMILES),"SA-β-Gal activity (senescence), effect in words (A2780 cells)",IC50 (A2780; [11]) [µM],"caspase-3 activity, effect in words (caspase-3)","8-OH-dG level after 24-h recovery in standard growth medium, in words [1]",IC50 (HOSE cells [2]) [µM],IC50 (SKOV-3 [3]; [11]) [µM],IC50 (SKOV-3 [4]) [µM],"CAT activity, effect in words (catalase (CAT) [5])","CAT activity, effect in words (catalase (CAT) [6])",SA-β-Gal (HPMCs [7]; 10 μM),SA-β-Gal (HPMCs [7]; 50 μM) [%],SA-β-Gal (HPMCs [7]; 100 μM) [%],SA-β-Gal (HOSE cells [8]; 10 μM) [%],SA-β-Gal (HOSE cells [8]; 50 μM) [%],SA-β-Gal (HOSE cells [8]; 100 μM) [%],IC50 (HOSE cells [9]) [µM],concentration up to which viability was unchanged (HOSE cells [9]) [µM],Proliferation (HPMCs [10]; 10 μM),Proliferation (HPMCs [10]; 50 μM) [%],Proliferation (HPMCs [10]; 100 μM) [%],also measured
"Oc1ccc(/C=C/c2cc(O)cc(O)c2)cc1 [RVT, 3,4′,5-trihydroxy-trans-stilbene, reference compound]",did not change,48,"activated caspases 9 and 3, and this activity was evident at 50 and 100 μM",returned to basal values within 24 h,421,380,346,"stimulated the enzyme at 10 μM in the OVCAR-3 cells, at 50 μM in the A2780, OVCAR-3, and SKOV-3 cells, and at 100 μM in the OVCAR-3 and SKOV-3 cells","stimulated the enzyme at 10 μM in the OVCAR-3 cells, at 50 μM in the A2780, OVCAR-3, and SKOV-3 cells, and at 100 μM in the OVCAR-3 and SKOV-3 cells",100 ± 2%,102 ± 4,100 ± 1,101 ± 2,101 ± 2,100 ± 3,485,≤ 400,99 ± 3%,103 ± 4,102 ± 2,
"Oc1ccc(/C=C/c2ccc(O)c(O)c2)cc1O [3,3′,4,4′-THS, 3,3′,4,4′-tetrahydroxy-trans-stilbene]","increased SA-β-Gal at each dose, reaching the highest activity at as low a dose as 10 μM",4,increased the activity of the same caspases as RVT did,still markedly higher than in the unstimulated cells,532,8,10,"upregulated it in the OVCAR-3 cells at 10 μM, reduced it at 50 and 100 μM",downregulated it in the SKOV-3 cells at 50 and 100 μM,76 ± 3^∗# %,104 ± 4,99 ± 3,99 ± 2,101 ± 3,102 ± 5,502,≤ 400,141 ± 3^∗# %,103 ± 1,102 ± 2,"viability at 10 µM (A2780; 10 μM, percentage of control cells): 20 ± 3%; viability at 50 µM (A2780; 50 μM, percentage of control cells): 14 ± 3%; viability at 100 µM (A2780; 100 μM, percentage of control cells): 13 ± 3%; IC50 (A2780; [12]): 4 to 6 µM; viability at 10 µM (SKOV-3 [3]; [13]): 40 ± 2%; viability at 50 µM (SKOV-3 [3]; [14]): 39 ± 4%; viability at 100 µM (SKOV-3 [3]; [15]): 35 ± 2%; IC50 (SKOV-3 [3]; [12]): 8 to 10 µM; viability at 10 µM (SKOV-3 [4]; [13]): 50 ± 2%; viability at 50 µM (SKOV-3 [4]; [14]): 32 ± 12%; viability at 100 µM (SKOV-3 [4]; [15]): 24 ± 7%"
